Experiments:
Format in all cases: functional
[1] = test system: Mycobacterium tuberculosis; assay: Antituberculosis activity against Mycobacterium tuberculosis by bactec MGIT 960 method
[2] = test system: Mycolicibacterium smegmatis; assay: Antituberculosis activity against linezolid-resistant Mycobacterium smegmatis without mutation in 23S rRNA
[3] = test system: Mycobacterium tuberculosis; assay: Antituberculosis activity against Mycobacterium tuberculosis by bactec 460 TB method

Measured: MIC

CC(=O)NC[C@H]1CN(c2ccc(N3CCOCC3)c(F)c2)C(=O)O1 [LINEZOLID]
4 µg/mL: all assays above

Reference: ChEMBL document CHEMBL1152471 (2008)
